Laboratory results: patent US12103915B2, “TEAD inhibitors and methods of uses thereof” (Insilico Medicine IP Limited, priority 2022, dated 2024)

Key:
TEAD4 = TEAD4 (Homo sapiens, UniProt Q15561); assay: Thermal shift assay TEAD4; assay type: binding
In short: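 Protein thermal shift with TEAD4 at 0.1 mg/ml final, Protein Thermal Shift dye, compounds at 10 μM or 1 μM in PBS with 0.1% DMSO final. Melt reactions assembled on ice and run on a qPCR instrument.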

TEAD3 = TEAD3 (Homo sapiens, UniProt Q99594); assay: Thermal shift assay TEAD3; assay type: binding
Sequence of TEAD3 (Q99594 whole entry, species assumed): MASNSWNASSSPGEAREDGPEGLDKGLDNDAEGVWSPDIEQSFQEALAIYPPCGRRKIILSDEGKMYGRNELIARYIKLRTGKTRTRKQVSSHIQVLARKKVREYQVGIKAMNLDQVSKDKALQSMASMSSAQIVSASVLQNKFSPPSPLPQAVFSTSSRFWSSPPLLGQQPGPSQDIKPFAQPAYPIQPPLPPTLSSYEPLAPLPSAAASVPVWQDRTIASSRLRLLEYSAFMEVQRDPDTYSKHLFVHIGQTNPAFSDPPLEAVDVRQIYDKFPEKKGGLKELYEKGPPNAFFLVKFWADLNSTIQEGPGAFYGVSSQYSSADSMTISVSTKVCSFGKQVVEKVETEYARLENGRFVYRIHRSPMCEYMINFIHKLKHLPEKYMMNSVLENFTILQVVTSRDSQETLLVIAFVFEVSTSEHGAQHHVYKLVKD
In short: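 TEAD3 protein at 0.1 mg/ml final melted with Protein Thermal Shift dye on a qPCR instrument. Compounds tested at 10 μM and 1 μM in PBS, final DMSO 0.1%.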

TEAD2 = TEAD2 (Homo sapiens, UniProt Q15562); assay: Thermal shift assay TEAD2; assay type: binding
Sequence of TEAD2 (Q15562 whole entry, species assumed): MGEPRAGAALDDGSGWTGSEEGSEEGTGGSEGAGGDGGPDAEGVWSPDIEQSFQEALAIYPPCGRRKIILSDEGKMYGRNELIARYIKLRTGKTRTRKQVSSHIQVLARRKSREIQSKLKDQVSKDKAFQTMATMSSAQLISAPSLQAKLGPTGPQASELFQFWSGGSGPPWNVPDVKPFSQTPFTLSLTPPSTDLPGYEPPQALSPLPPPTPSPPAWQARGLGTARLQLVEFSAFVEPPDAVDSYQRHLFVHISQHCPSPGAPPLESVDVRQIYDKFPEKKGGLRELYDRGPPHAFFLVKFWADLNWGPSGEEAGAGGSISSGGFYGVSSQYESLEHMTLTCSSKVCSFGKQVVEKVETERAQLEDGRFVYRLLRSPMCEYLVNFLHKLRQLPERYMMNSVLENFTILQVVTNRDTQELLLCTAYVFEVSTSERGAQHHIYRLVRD
In short: (§1)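 Compounds tested at 10 μM and 1 μM, 0.1% DMSO final, with TEAD1 at 0.2 mg/ml or TEAD2 at 0.08 mg/ml final. Melting monitored with Protein Thermal Shift dye on a qPCR instrument.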

TEAD1 = TEAD1 (Homo sapiens, UniProt P28347); assay: Thermal shift assay TEAD1; assay type: binding
Sequence of TEAD1 (P28347 whole entry, species assumed): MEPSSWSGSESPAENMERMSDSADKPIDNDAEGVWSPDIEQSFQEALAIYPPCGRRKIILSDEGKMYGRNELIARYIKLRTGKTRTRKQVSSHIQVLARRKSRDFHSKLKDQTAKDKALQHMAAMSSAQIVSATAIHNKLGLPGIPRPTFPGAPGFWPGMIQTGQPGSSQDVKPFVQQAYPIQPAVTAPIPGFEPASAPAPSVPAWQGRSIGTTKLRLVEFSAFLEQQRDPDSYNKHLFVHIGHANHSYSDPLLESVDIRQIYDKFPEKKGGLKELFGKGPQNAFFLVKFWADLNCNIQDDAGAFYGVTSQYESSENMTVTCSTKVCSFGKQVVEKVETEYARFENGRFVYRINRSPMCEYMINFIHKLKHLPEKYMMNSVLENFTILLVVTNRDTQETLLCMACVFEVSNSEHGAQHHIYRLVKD
In short: as §1

NCI-H226 cells = assay: Cell growth assay (CellTiter-Glo); assay type: cell-based, human; details: Homo sapiens, NCI-H226, 168 h, 7 days treatment, CellTiter-Glo luminescence, read-out: H226 CTG IC50

Sequence of TEAD4 (Q15561 whole entry, species assumed): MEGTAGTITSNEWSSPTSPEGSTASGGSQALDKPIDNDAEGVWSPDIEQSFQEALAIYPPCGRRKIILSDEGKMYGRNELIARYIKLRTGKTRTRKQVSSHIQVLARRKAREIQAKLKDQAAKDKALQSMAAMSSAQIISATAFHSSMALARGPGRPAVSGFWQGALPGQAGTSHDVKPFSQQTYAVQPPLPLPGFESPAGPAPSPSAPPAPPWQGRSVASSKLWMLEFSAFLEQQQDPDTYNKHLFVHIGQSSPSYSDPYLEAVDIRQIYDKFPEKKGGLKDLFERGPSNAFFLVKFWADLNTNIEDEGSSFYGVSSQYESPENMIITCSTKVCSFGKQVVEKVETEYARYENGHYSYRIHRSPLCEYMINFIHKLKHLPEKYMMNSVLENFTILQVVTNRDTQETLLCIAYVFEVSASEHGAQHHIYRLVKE

SMILES	TEAD4 ΔTm (TEAD4)	TEAD3 ΔTm (TEAD3)	TEAD2 ΔTm (TEAD2)	TEAD1 ΔTm (TEAD1)	IC50 (NCI-H226 cells)
Cn1cc2cc(Oc3ccc(C(F)(F)F)cc3)cc([C@@H]3C[C@H]3C(=O)N3CCO[C@H](CO)C3)c2n1 (single isomer, unassigned) [Example 61]	10.4 °C	0.8 °C	12.2 °C	9.3 °C	< 100 nM
Cn1cc2cc(Oc3ccc(C(F)(F)F)cc3)cc([C@@H]3C[C@H]3C(=O)N3CCO[C@@H](CO)C3)c2n1 (single isomer, unassigned) [Example 62]	7.7 °C	1.2 °C	10.6 °C	7.4 °C	< 100 nM
Cn1cc2cc(Oc3ccc(C(F)(F)F)cc3)cc([C@@H]3C[C@H]3C(=O)NCC#N)c2n1 (single isomer, unassigned) [Example 66]	11.7 °C	10.6 °C	14.7 °C	11.1 °C	< 100 nM
Cn1cc2cc(Oc3ccc(C(F)(F)F)cc3)cc([C@@H]3C[C@H]3C(=O)NC3(C#N)CC3)c2n1 (single isomer, unassigned) [Example 67]	7.9 °C	1.7 °C	9.9 °C	8.8 °C	< 100 nM
C[C@@H](C#N)NC(=O)[C@@H]1C[C@H]1c1cc(Oc2ccc(C(F)(F)F)cc2)cc2cn(C)nc12 (single isomer, unassigned) [Example 69]	12.9 °C	11.6 °C	13.9 °C	10.9 °C	< 100 nM
Cn1cc2cc(Oc3ccc(C(F)(F)F)cc3)cc([C@@H]3C[C@H]3C(=O)N3CC(C#N)C3)c2n1 (single isomer, unassigned) [Example 70]	8.6 °C	7.0 °C	11.7 °C	8.4 °C	< 100 nM
Cn1cc2cc(Oc3ccc(C(F)(F)F)cc3)cc([C@@H]3C[C@H]3C(=O)NC#N)c2n1 (single isomer, unassigned) [Example 71]	12.2 °C	12.2 °C	13.4 °C	11.2 °C	1000 to 30000 nM
Cn1cc2cc(Oc3ccc(C(F)(F)F)cc3)cc(C3C[C@H]3C(=O)N3CCC[C@@H]3C#N)c2n1 (single isomer, unassigned) [Example 72]	4.7 °C	1.7 °C	8.6 °C	3.5 °C	< 100 nM
Cn1cc2cc(Oc3ccc(C(F)(F)F)cc3)cc(C3C[C@H]3C(=O)N3CCC[C@H]3C#N)c2n1 (single isomer, unassigned) [Example 73]	12.1 °C	13.9 °C	15.1 °C	9.5 °C	< 100 nM
Cn1cc2cc(Oc3ccc(C(F)(F)F)cc3)cc(C3C[C@H]3C(=O)N3CCC(O)CC3)c2n1 (single isomer, unassigned) [Example 74]	10.2 °C	11.4 °C	12.9 °C	10.7 °C	< 100 nM
Cn1cc2cc(Oc3ccc(C(F)(F)F)cc3)cc([C@@H]3C[C@H]3C(=O)N3CC[C@@H](O)[C@H](O)C3)c2n1 (single isomer, unassigned) [Example 75b]	11.6 °C	10.1 °C	11.9 °C	9.3 °C	< 100 nM
Cc1cn2cc(Oc3ccc(C(F)(F)F)cc3)cc([C@H]3C[C@@H]3C(=O)N3CC(O)C3)c2n1 (single isomer, unassigned) [Example 85b]	4.4 °C	1.8 °C	7.1 °C	7.4 °C	< 100 nM
Cn1cc2cc(N3CCC4(CCCC4)CC3)cc(C3C[C@H]3C(=O)N3C[C@H](O)[C@@H](O)C3)c2n1 (single isomer, unassigned) [Example 86]	2.6 °C	0.2 °C	2.7 °C	2.6 °C	1000 to 30000 nM
Cn1cc2cc(Oc3ccc(C(F)(F)F)cn3)cc([C@H]3C[C@@H]3C(=O)N3CC(O)C3)c2n1 (single isomer, unassigned) [Example 88b]	9.7 °C	2.6 °C	10.9 °C	7.6 °C	< 100 nM
Cn1cc2cc(Oc3ccc(C(F)F)cc3)cc([C@H]3C[C@@H]3C(=O)N3CC(O)C3)c2n1 (single isomer, unassigned) [Example 89b]	11.4 °C	8.8 °C	12.4 °C	8.6 °C	< 100 nM
Cn1cc2cc(Oc3ccc(F)c(F)c3)cc([C@H]3C[C@@H]3C(=O)N3CC(O)C3)c2n1 (single isomer, unassigned) [Example 90b]	10.3 °C	2.9 °C	10.5 °C	7.7 °C	< 100 nM
Cn1cc2cc(Oc3ccc(C(F)(F)F)cc3)cc(C3C[C@H]3C(=O)NC3CC4(CC(O)C4)C3)c2n1 (single isomer, unassigned) [Example 95]	9.4 °C	6.4 °C	10.6 °C	9.4 °C	< 100 nM
Cn1cc2cc(Oc3ccc(C(F)(F)F)cc3)cc(C3C[C@H]3C(=O)N3C4COCC3C4)c2n1 (single isomer, unassigned) [Example 96]	12.6 °C	12.3 °C	13.1 °C	10.5 °C	< 100 nM
Cn1cc2cc(Oc3ccc(C(F)(F)F)cc3)cc(C3C[C@H]3C(=O)N3CC4(CC(O)C4)C3)c2n1 (single isomer, unassigned) [Example 97]	10.2 °C	7.6 °C	9.0 °C	9.9 °C	< 100 nM
Cn1cc2cc(Oc3ccc(C(F)(F)F)cc3)cc(C3C[C@H]3C(=O)N3CCC4(COC4)C3)c2n1 (single isomer, unassigned) [Example 98]	8.4 °C	0 °C	9.2 °C	7.3 °C	100 to 500 nM
Cn1cc2cc(Oc3ccc(C(F)(F)F)cc3)cc(C3C[C@H]3C(=O)NC34CC(O)(C3)C4)c2n1 (single isomer, unassigned) [Example 102]	8.7 °C	2.1 °C	9.1 °C	7.3 °C	< 100 nM
Cn1cc2cc(Oc3ccc(C(F)(F)F)cc3)cc([C@@H]3C[C@H]3C(=O)N3CC4CC3CC4O)c2n1 (single isomer, unassigned) [Example 103a]	9.0 °C	3.0 °C	9.9 °C	6.4 °C	< 100 nM
Cn1cc2cc(Oc3ccc(C(F)(F)F)cc3)cc([C@H]3C[C@@H]3C(=O)N3CC4CC3CC4O)c2n1 (single isomer, unassigned) [Example 103b]	11.8 °C	10.4 °C	12.0 °C	9.2 °C	< 100 nM
Cn1cc2cc(Oc3ccc(C(F)(F)F)cc3)cc(C3C[C@H]3C(=O)N3C[C@H]4C[C@@H]3C[C@@H]4O)c2n1 (single isomer, unassigned) [Example 103c]	10.7 °C	9.4 °C	11.1 °C	9.2 °C	< 100 nM
